Assay results taken from ChEMBL document CHEMBL1201862, “PubChem BioAssay data set” (2004).
Active and inactive are the calls of the source.

How the values were obtained:
[1] = tested on: Escherichia coli; assay: microbe, parasite or virus in culture
[2] = biological target: T1, Leucine aminopeptidase (Plasmodium falciparum 3D7, UniProt Q8IL11); assay: P. falciparum M17LAP inhibitors, primary screen, biochemical, fluorogenic H-Leu-NHMec substrate, 1536-well (AID 1619); format: functional
T1 sequence (Q8IL11 whole entry): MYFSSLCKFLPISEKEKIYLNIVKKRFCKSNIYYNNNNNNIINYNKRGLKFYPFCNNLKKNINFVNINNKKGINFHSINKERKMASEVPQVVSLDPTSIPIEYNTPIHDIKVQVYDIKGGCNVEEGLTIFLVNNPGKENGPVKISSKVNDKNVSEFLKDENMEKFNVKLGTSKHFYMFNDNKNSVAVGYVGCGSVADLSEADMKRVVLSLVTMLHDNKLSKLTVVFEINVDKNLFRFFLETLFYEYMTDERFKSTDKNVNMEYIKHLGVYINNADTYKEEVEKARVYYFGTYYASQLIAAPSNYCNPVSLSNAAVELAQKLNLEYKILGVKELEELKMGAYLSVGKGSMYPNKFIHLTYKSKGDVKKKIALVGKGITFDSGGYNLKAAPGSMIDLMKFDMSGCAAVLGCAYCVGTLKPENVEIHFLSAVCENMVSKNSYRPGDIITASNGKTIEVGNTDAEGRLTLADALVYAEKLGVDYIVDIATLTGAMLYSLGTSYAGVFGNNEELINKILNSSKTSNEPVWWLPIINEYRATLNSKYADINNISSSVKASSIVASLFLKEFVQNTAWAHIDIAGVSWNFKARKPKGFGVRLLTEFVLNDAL

[3] = biological target: T2, Aminopeptidase N (Plasmodium falciparum FcB1/Columbia, UniProt O96935); assay: P. falciparum M1AAP inhibitors, biochemical, fluorogenic H-Leu-NHMec substrate, 1536-well (AID 1445); design: species or system Plasmodium falciparum 3D7, 3D7
T2 sequence (O96935 whole entry): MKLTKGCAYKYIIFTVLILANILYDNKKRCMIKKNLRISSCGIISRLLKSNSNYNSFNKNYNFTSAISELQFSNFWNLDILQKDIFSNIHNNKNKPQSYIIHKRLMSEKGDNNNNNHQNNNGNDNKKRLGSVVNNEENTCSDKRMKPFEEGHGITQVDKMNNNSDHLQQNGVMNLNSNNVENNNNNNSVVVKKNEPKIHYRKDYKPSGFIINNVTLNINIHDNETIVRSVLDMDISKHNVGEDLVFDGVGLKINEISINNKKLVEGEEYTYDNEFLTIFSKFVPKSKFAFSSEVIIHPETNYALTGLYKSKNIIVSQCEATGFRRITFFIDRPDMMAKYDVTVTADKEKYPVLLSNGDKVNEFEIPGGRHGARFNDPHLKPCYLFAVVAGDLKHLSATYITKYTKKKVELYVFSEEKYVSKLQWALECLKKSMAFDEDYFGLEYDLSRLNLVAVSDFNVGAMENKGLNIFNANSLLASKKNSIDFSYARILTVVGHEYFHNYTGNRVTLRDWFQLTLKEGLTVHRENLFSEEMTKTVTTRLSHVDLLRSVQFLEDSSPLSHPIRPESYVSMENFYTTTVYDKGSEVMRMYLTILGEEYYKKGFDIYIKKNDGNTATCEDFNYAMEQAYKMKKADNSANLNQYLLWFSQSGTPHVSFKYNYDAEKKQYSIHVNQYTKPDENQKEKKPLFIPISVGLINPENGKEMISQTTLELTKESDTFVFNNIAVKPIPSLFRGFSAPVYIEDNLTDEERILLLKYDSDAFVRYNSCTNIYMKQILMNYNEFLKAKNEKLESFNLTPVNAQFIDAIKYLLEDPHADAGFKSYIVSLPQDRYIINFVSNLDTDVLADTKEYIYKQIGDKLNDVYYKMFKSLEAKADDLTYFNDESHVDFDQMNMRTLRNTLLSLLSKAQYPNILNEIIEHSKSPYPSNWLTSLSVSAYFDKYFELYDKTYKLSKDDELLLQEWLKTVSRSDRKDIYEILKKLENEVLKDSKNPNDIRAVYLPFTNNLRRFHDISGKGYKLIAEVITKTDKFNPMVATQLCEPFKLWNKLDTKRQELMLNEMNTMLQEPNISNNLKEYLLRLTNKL

[4] = biological target: Voltage-dependent T-type calcium channel subunit alpha-1H (Homo sapiens, UniProt O95180); format: functional;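 note: channel activity triggered by adding a high calcium stimulation buffer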
[5] = biological target: T3, Short transient receptor potential channel 4 (Mus musculus, UniProt Q9QUQ5); assay: mouse TRPC4 channel inhibitors, dose response, cell-based, HEK293 TRPC4/mu-opioid, Fluo-4 calcium (AID 434942); format: functional;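 note: potency of inhibitors blocking the TRPC4 calcium response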
T3 sequence (Q9QUQ5 whole entry): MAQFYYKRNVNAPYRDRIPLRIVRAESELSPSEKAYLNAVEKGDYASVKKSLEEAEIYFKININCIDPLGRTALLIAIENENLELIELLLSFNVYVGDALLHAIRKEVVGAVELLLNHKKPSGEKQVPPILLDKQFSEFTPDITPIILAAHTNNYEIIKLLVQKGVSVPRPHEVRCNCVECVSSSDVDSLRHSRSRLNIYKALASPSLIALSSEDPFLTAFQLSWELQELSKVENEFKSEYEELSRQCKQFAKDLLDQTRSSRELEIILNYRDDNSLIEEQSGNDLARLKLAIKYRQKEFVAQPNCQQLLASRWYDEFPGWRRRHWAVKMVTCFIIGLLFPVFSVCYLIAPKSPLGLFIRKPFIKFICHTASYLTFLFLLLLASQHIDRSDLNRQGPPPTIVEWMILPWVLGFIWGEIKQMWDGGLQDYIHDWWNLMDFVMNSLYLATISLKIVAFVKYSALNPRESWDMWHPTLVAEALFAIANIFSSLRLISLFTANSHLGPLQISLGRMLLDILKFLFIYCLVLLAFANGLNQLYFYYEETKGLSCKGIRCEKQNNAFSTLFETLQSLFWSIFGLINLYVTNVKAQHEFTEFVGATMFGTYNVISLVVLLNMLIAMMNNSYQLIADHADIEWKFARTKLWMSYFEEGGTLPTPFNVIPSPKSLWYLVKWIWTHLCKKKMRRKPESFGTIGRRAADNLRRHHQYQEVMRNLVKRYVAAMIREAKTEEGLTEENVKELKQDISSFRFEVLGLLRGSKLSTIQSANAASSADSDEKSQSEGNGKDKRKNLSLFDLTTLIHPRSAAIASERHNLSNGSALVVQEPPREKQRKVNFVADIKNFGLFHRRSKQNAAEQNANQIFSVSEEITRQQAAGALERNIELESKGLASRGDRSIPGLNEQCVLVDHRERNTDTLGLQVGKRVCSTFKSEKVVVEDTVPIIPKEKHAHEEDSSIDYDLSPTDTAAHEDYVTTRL

[6] = Shn3 3'UTR reporter inhibitors, dose response, cell-based, Clone20 osteoblasts, firefly luciferase, cherry-picked (AID 624132); format: functional;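 note: firefly luciferase luminescence from reporter carrying the Shn3 3'UTR in osteoblasts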
[7] = biological target: Nucleotide-binding oligomerization domain-containing protein 2 (Homo sapiens, UniProt Q9HC29); assay: NOD2 signaling inhibitors, cell-based, luminescence, uHTS, HEK293 (AID 1566); format: functional
[8] = tested on: HEK293; assay: NOD1 signaling inhibitors, primary screen, cell-based, luminescence, uHTS (AID 1578); format: functional; conditions: Homo sapiens
[9] = HepG2 cell cytotoxicity, dose response, cytotoxicity control for Shn3 inhibitor project, CellTiter-Glo, cherry-picked (AID 624134); format: functional, cell-based
[10] = tested on: HEK293; assay: cells; format: functional, cell-based; conditions: Homo sapiens
[11] = tested on: HEK293; assay: cells; format: functional, cell-based; conditions: Homo sapiens; remark: listed apart in the source
[12] = cytotoxicity in HEK-293T cells, dose response, cytotoxicity control for TCR NF-kB inhibitor project, luminescence, T-cell screen hits (AID 489026); format: functional, cell-based;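 note: cells exposed to compound about 14 hours before the viability readout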
[13] = tested on: HEK293; assay: cells; format: functional, cell-based; conditions: Homo sapiens; remark: listed apart in the source
[14] = tested on: HEK293; assay: NOD2 signaling inhibitors in MDP-stimulated cells, cell-based, uHTS, luminescence (AID 2001); format: functional; conditions: Homo sapiens
[15] = tested on: INS1; assay: beta cell apoptosis inhibitors, cytokine rescue, dose response, luminescence, retest (AID 449756); format: functional, cell-based; conditions: Rattus norvegicus;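 note: cell death triggered by IL-1 beta plus TNF-alpha plus IFN-gamma mixture; protective hits raise ATP signal compared with cytokine alone wells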
[16] = biological target: Alkaline phosphatase, placental type (Homo sapiens, UniProt P05187); assay: PLAP enzyme inhibitors, confirmation, biochemical, luminescence (AID 1512); format: functional
[17] = biological target: T4, Alkaline phosphatase, tissue-nonspecific isozyme (Homo sapiens, UniProt P05186); assay: human TNAP enzyme inhibitors, SAR follow-up, biochemical, luminescent, dose response (AID 1056)
T4 sequence (P05186 whole entry): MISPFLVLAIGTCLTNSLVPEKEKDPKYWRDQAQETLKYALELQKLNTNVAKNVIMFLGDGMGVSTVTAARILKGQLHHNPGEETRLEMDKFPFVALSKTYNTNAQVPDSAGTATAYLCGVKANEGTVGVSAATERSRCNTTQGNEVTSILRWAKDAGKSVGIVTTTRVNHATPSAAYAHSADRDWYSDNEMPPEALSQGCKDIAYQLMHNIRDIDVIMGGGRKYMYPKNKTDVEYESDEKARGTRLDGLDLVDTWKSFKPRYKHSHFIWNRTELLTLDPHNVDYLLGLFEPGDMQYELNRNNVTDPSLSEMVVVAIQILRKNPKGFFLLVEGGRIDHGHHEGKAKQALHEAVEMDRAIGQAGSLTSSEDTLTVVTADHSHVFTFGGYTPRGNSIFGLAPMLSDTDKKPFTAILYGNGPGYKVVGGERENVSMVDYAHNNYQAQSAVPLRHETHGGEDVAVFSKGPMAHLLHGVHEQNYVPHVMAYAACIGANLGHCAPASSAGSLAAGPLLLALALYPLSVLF

[18] = biological target: T5, Polyadenylate-binding protein 1 (Homo sapiens, UniProt P11940); assay: PABP1 MLLE–PAM2 binding inhibitor potency, dose response, biochemical, fluorescence polarization, FITC-PAM2 peptide (AID 602259); format: functional; conditions: read-out: IC50_Mean
[19] = biological target: T5, Polyadenylate-binding protein 1; assay: PABP1 MLLE–PAM2 interaction inhibitors, dose response, miRNA deadenylation inhibitor project, biochemical, fluorescence polarization, Cy5-PAM2 peptide, secondary (AID 602260); format: functional; conditions: read-out: IC50_Mean
[20] = cytotoxicity in HEK-293T cells, dose response, cytotoxicity control for BCR NF-kB inhibitor project, luminescence, B-cell screen hits (AID 489021); format: functional, cell-based;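 note: HEK-293T cells carrying an NF-kB luciferase reporter; cells exposed to compound for about 14 hours before viability readout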
[21] = tested on: Vero; assay: cells; format: functional, cell-based; conditions: Chlorocebus sabaeus

Voltage-dependent T-type calcium channel subunit alpha-1H, sequence (O95180 whole entry): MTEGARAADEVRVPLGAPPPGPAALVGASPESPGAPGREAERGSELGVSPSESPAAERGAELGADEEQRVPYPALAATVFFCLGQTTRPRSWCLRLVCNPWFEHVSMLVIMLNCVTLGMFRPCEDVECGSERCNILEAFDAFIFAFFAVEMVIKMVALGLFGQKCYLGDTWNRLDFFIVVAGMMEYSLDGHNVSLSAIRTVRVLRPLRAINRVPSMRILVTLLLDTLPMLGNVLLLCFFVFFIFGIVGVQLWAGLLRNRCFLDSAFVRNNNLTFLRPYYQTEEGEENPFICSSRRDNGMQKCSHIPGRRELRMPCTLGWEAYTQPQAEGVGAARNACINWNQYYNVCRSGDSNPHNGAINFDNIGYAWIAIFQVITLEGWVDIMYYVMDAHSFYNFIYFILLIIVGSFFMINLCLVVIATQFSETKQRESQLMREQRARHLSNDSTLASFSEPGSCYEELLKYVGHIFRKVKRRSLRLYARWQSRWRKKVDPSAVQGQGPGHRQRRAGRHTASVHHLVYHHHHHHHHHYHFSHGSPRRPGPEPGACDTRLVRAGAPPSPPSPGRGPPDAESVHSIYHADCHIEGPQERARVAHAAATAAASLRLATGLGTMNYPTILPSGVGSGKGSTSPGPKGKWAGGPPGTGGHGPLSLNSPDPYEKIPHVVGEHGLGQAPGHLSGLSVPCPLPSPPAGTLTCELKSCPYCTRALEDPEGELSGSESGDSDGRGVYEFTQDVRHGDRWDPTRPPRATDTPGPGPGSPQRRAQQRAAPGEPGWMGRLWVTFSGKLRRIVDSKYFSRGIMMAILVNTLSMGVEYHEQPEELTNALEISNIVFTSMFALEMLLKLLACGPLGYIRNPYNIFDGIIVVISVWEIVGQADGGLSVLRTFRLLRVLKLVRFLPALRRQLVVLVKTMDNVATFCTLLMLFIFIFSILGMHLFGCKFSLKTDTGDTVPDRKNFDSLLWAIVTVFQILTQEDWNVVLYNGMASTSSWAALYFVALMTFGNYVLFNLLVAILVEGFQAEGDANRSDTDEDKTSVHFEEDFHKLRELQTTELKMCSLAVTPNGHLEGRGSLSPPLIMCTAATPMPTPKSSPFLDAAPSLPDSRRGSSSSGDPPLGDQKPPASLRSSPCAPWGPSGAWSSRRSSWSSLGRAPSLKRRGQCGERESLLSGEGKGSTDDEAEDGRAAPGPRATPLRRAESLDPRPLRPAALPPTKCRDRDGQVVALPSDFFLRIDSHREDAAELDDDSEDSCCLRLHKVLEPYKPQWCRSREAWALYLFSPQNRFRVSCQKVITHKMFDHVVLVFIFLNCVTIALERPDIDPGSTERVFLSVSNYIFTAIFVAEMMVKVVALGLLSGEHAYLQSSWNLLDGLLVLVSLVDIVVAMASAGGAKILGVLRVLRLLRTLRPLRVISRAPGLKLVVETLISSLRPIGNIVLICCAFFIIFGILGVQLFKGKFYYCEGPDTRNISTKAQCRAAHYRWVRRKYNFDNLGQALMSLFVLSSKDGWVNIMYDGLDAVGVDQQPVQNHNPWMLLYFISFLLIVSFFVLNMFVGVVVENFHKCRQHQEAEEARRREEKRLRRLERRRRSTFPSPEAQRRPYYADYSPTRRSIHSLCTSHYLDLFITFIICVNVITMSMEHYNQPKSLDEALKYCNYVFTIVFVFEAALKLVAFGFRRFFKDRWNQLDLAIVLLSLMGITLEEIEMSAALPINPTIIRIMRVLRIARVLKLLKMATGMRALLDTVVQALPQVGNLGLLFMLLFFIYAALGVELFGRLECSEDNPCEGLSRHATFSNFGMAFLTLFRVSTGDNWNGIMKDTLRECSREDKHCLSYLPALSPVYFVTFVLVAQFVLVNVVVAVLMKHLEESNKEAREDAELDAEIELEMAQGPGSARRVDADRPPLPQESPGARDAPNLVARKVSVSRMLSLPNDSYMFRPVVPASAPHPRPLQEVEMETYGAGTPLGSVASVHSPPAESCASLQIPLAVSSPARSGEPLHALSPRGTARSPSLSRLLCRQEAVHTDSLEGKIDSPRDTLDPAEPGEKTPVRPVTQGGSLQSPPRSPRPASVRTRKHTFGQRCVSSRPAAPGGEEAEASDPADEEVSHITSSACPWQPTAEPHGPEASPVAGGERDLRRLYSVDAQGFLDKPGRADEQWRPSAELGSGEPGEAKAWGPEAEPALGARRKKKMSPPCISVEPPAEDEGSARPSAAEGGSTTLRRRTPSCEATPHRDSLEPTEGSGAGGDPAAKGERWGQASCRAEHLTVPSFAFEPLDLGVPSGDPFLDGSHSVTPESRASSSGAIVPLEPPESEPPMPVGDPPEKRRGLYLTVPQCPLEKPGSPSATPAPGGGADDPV
Alkaline phosphatase, placental type, sequence (P05187 whole entry): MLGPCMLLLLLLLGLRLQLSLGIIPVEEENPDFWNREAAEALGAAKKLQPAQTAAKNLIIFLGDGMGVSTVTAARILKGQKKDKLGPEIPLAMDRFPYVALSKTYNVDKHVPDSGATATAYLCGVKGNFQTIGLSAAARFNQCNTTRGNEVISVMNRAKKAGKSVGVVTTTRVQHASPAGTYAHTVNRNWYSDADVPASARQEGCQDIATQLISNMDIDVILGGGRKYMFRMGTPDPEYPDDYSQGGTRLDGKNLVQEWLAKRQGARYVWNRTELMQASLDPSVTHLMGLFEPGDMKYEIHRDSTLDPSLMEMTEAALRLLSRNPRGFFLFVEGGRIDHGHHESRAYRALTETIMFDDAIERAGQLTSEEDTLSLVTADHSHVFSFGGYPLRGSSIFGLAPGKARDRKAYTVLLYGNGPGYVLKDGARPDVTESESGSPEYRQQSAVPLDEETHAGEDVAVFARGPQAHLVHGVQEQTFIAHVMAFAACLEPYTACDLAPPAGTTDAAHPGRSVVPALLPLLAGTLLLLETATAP
T5 sequence (P11940 whole entry): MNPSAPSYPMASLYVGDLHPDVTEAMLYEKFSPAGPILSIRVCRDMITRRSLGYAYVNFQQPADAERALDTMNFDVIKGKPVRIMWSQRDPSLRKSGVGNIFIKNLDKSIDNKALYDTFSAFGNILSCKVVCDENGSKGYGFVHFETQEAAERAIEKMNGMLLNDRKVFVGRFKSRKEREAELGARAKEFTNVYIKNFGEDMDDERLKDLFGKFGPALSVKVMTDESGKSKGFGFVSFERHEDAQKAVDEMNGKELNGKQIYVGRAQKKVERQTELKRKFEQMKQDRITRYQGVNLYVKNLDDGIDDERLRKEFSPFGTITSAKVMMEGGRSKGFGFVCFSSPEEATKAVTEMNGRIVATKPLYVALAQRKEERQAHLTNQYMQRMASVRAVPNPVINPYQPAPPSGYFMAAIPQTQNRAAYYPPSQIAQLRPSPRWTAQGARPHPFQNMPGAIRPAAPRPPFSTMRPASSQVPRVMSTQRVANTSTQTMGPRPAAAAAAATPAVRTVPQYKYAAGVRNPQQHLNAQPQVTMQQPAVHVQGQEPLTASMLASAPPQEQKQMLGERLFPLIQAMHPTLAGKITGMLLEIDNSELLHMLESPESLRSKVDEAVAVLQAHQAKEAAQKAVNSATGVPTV
Nucleotide-binding oligomerization domain-containing protein 2, sequence (Q9HC29 whole entry, the tested form may be a part): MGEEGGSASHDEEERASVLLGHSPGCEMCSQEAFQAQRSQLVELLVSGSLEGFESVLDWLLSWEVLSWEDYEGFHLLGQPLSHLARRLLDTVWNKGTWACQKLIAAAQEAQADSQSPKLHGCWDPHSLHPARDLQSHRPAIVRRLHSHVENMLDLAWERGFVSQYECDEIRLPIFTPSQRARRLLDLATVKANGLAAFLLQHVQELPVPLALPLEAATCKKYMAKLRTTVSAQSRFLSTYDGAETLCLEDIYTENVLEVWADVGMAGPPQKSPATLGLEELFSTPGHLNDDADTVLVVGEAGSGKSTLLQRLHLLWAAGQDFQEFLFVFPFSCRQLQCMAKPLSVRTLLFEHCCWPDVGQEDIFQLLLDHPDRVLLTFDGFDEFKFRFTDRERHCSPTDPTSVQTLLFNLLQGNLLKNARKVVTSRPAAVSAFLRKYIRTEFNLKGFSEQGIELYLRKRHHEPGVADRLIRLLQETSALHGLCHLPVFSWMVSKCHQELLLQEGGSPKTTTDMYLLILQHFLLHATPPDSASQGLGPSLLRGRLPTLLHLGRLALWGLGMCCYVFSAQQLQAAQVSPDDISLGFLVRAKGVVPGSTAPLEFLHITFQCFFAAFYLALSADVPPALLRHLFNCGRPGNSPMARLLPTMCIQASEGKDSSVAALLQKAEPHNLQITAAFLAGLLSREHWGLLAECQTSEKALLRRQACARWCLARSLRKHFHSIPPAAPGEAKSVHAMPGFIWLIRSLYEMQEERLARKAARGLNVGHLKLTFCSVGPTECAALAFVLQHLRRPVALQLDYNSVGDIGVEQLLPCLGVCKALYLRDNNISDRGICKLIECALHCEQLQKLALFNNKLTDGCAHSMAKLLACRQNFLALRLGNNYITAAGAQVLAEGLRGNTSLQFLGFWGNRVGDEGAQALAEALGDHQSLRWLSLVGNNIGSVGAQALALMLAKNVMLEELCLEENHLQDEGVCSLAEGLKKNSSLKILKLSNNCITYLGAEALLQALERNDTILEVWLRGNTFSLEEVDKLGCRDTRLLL

SMILES: COCCN(C(S)=Nc1c(C)cc(C)cc1C)C(C)c1cccnc1 (stereo not given)
- AC50 [1]: 57.7 µM (active)

SMILES: COc1cc(NC(=O)CSc2ncnc3scc(-c4ccccc4)c23)c(C(=O)O)cc1OC
- IC50 [2]: < 1 µM (active)
- IC50 [3]: 40.1 µM (active)

SMILES: CC(C)(C)n1nnnc1CN(Cc1ccc(F)cc1)Cc1ccco1
- EC50 [4]: 6.27 µM (active)

SMILES: O=C(CCCSc1nc2ccccc2[nH]1)NCc1ccccc1Cl
- EC50 [5]: 3.76 µM (active)

SMILES: CN1CCN(c2nc3c(c(=O)n(C)c(=O)n3C)n2CC(=O)C23CC4CC(CC(C4)C2)C3)CC1
- EC50 [5]: 2.11 µM (active)

SMILES: COc1ccc(NS(=O)(=O)c2ccc(-c3cnc(C4CC4)o3)cc2)cc1OC
- AC50 [6]: 1.33 µM (active)
- EC50 [7]: 14.4 µM (active)
- EC50 [8]: 2.04 µM (active)
- AC50 [9]: 2.32 µM (active)
- IC50 [10]: > 20 µM (inactive)
- IC50 [11]: 18.4 µM (active)
- IC50 [12]: > 80 µM (inactive)
- IC50 [13]: 6.05 µM (active)
- IC50 [14]: 6.25 µM (active)
- AC50 [15]: 3.52 µM (active)

SMILES: O=C(COC(=O)CCc1ccc(S(=O)(=O)N2CCCCC2)cc1)Nc1ccc2c(c1)OCO2
- EC50 [4]: 26.4 µM (active)

SMILES: CN1CCN(Cc2nc3ccccc3c(=O)n2Cc2nc(-c3cccc([N+](=O)[O-])c3)cs2)CC1
- IC50 [3]: 79.7 µM (active)

SMILES: O=C(CSc1nc2ccccc2o1)c1ccc(O)c(O)c1
- IC50 [16]: 3.06 µM (active)
- IC50 [17]: 4.15 µM (active)

SMILES: CCOC(=O)C1(c2ccccc2)CCN(CC(=O)Nc2ccc(C)cc2)CC1
- EC50 [5]: 2.99 µM (active)

SMILES: Cc1cccc(-c2nc(C[S+]([O-])CC(=O)NCCCSC3CCCCC3)c(C)o2)c1 (stereo not given)
- EC50 [4]: 3.94 µM (active)

SMILES: O=C(NC1CCN(C(=O)NCc2ccccc2)CC1)c1ccco1
- IC50 [3]: 93.2 µM (active)

SMILES: COc1ccc(S(=O)(=O)N2CCN(c3ccc(C)cc3C)CC2)cc1OC
- EC50 [4]: 9.63 µM (active)

SMILES: Cc1cc2cc(CNC(=O)c3ccc(Br)o3)ccc2[nH]1
- IC50 [18]: 49.6 µM (inactive)
- IC50 [19]: 45.1 µM (inactive)
- EC50 [4]: 10.1 µM (active)

SMILES: CC(C)(C)n1nnnc1C(c1cc2cc3c(cc2nc1O)OCCO3)N1CCSCC1 (stereo not given)
- AC50 [1]: 28.6 µM (active)

SMILES: O=C(Cn1cnc2ccccc21)c1ccc(O)c(O)c1
- IC50 [17]: 14 µM (active)

SMILES: NS(=O)(=O)c1ccc(NC(=O)CSc2nnc(-c3ccc(O)cc3)o2)cc1
- AC50 [1]: 127 µM (active)

SMILES: COc1cc(/C(C)=N\NC(N)=S)cc(OC)c1OC
- IC50 [20]: > 80 µM (inactive)

SMILES: COc1ccc(-c2nnc(SCC(=O)c3ccc(O)c(O)c3)n2-c2ccccc2)cc1
- IC50 [16]: 7.22 µM (active)
- IC50 [17]: > 100 µM (inactive)

SMILES: Cc1ccc2c(Cl)cc(Cl)c(O)c2n1 [CHLORQUINALDOL]
- IC50 [21]: > 25 µM (active)
- AC50 [1]: 54.3 µM (active)
